{"source": "the supplement of paper PMC10307832", "assay_in_all_cases": "relative viability (nuclei count vs DMSO), 5 days (fraction); higher = more cells survive", "key": {"[1]": {"system": "A-427", "method_in_brief": "(§1)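 Medians of duplicate plates are given as relative viability. That measure is the nuclei count in treated wells divided by the count in vehicle wells. Counts were taken on 4× images of lung cancer cell lines in 1536-well plates, 5 days after pin-tool dosing the day after seeding with one drug alone or a fixed anchor-drug dose plus five library-drug doses (not always all listed) in √10 steps.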"}, "[2]": {"system": "ABC-1", "method_in_brief": "as §1"}, "[3]": {"system": "COR-L23", "method_in_brief": "as §1"}, "[4]": {"system": "EMC-BAC-2", "method_in_brief": "as §1"}, "[5]": {"system": "HARA", "method_in_brief": "as §1"}, "[6]": {"system": "HCC-15", "method_in_brief": "as §1"}, "[7]": {"system": "HCC-366", "method_in_brief": "as §1"}, "[8]": {"system": "HCC-78", "method_in_brief": "as §1"}, "[9]": {"system": "LC-2-ad", "method_in_brief": "as §1"}, "[10]": {"system": "LK-2", "method_in_brief": "as §1"}, "[11]": {"system": "NCI-H1734", "method_in_brief": "as §1"}, "[12]": {"system": "NCI-H1793", "method_in_brief": "as §1"}, "[13]": {"system": "NCI-H1944", "method_in_brief": "as §1"}, "[14]": {"system": "NCI-H1993", "method_in_brief": "as §1"}, "[15]": {"system": "NCI-H2009", "method_in_brief": "as §1"}, "[16]": {"system": "NCI-H2023", "method_in_brief": "as §1"}, "[17]": {"system": "NCI-H2228", "method_in_brief": "as §1"}, "[18]": {"system": "NCI-H23", "method_in_brief": "as §1"}, "[19]": {"system": "NCI-H2405", "method_in_brief": "as §1"}, "[20]": {"system": "NCI-H838", "method_in_brief": "as §1"}, "[21]": {"system": "SK-LU-1", "method_in_brief": "as §1"}, "[22]": {"system": "UMC-11", "method_in_brief": "as §1"}}, "data": [{"smiles": "Clc1ccc(Nc2nnc(Cc3ccncc3)c3ccccc23)cc1", "note": "[Vatalanib] + C[C@]1(O)C[C@@H](c2nc(-c3ccc4ccc(-c5ccccc5)nc4c3)c3c(N)nccn32)C1 [Linsitinib] (partner 1 µM)", "values": [{"measurement": "relative viability", "setting": "[1]; first compound 0.04 µM", "result": 1.15}, {"measurement": "relative viability", "setting": "[1]; first compound 0.1265 µM", "result": 1.1}, {"measurement": "relative viability", "setting": "[1]; first compound 0.4 µM", "result": 1.13}, {"measurement": "relative viability", "setting": "[1]; first compound 1.265 µM", "result": 1.06}, {"measurement": "relative viability", "setting": "[1]; first compound 4 µM", "result": 1.1}, {"measurement": "relative viability", "setting": "[2]; first compound 0.04 µM", "result": 0.89}, {"measurement": "relative viability", "setting": "[2]; first compound 0.1265 µM", "result": 0.767}, {"measurement": "relative viability", "setting": "[2]; first compound 0.4 µM", "result": 1.05}, {"measurement": "relative viability", "setting": "[2]; first compound 1.265 µM", "result": 0.659}, {"measurement": "relative viability", "setting": "[2]; first compound 4 µM", "result": 0.981}, {"measurement": "relative viability", "setting": "[3]; first compound 0.04 µM", "result": 0.978}, {"measurement": "relative viability", "setting": "[3]; first compound 0.1265 µM", "result": 0.943}, {"measurement": "relative viability", "setting": "[3]; first compound 0.4 µM", "result": 1.08}, {"measurement": "relative viability", "setting": "[3]; first compound 1.265 µM", "result": 0.811}, {"measurement": "relative viability", "setting": "[3]; first compound 4 µM", "result": 0.922}, {"measurement": "relative viability", "setting": "[4]; first compound 0.04 µM", "result": 0.817}, {"measurement": "relative viability", "setting": "[4]; first compound 0.1265 µM", "result": 0.762}, {"measurement": "relative viability", "setting": "[4]; first compound 0.4 µM", "result": 0.793}, {"measurement": "relative viability", "setting": "[4]; first compound 1.265 µM", "result": 0.808}, {"measurement": "relative viability", "setting": "[4]; first compound 4 µM", "result": 0.802}, {"measurement": "relative viability", "setting": "[5]; first compound 0.04 µM", "result": 1.02}, {"measurement": "relative viability", "setting": "[5]; first compound 0.1265 µM", "result": 0.896}, {"measurement": "relative viability", "setting": "[5]; first compound 0.4 µM", "result": 1}, {"measurement": "relative viability", "setting": "[5]; first compound 1.265 µM", "result": 0.84}, {"measurement": "relative viability", "setting": "[5]; first compound 4 µM", "result": 0.838}, {"measurement": "relative viability", "setting": "[6]; first compound 0.04 µM", "result": 0.937}, {"measurement": "relative viability", "setting": "[6]; first compound 0.1265 µM", "result": 0.911}, {"measurement": "relative viability", "setting": "[6]; first compound 0.4 µM", "result": 0.902}, {"measurement": "relative viability", "setting": "[6]; first compound 1.265 µM", "result": 0.87}, {"measurement": "relative viability", "setting": "[6]; first compound 4 µM", "result": 0.873}, {"measurement": "relative viability", "setting": "[7]; first compound 0.04 µM", "result": 0.722}, {"measurement": "relative viability", "setting": "[7]; first compound 0.1265 µM", "result": 0.456}, {"measurement": "relative viability", "setting": "[7]; first compound 0.4 µM", "result": 0.725}, {"measurement": "relative viability", "setting": "[7]; first compound 1.265 µM", "result": 0.542}, {"measurement": "relative viability", "setting": "[7]; first compound 4 µM", "result": 0.609}, {"measurement": "relative viability", "setting": "[8]; first compound 0.04 µM", "result": 0.507}, {"measurement": "relative viability", "setting": "[8]; first compound 0.1265 µM", "result": 0.467}, {"measurement": "relative viability", "setting": "[8]; first compound 0.4 µM", "result": 0.527}, {"measurement": "relative viability", "setting": "[8]; first compound 4 µM", "result": 0.448}, {"measurement": "relative viability", "setting": "[9]; first compound 0.04 µM", "result": 0.916}, {"measurement": "relative viability", "setting": "[9]; first compound 0.1265 µM", "result": 0.799}, {"measurement": "relative viability", "setting": "[9]; first compound 0.4 µM", "result": 0.971}, {"measurement": "relative viability", "setting": "[9]; first compound 1.265 µM", "result": 0.841}, {"measurement": "relative viability", "setting": "[9]; first compound 4 µM", "result": 0.883}, {"measurement": "relative viability", "setting": "[10]; first compound 0.04 µM", "result": 0.712}, {"measurement": "relative viability", "setting": "[10]; first compound 0.1265 µM", "result": 0.423}, {"measurement": "relative viability", "setting": "[10]; first compound 0.4 µM", "result": 0.541}, {"measurement": "relative viability", "setting": "[10]; first compound 1.265 µM", "result": 0.435}, {"measurement": "relative viability", "setting": "[10]; first compound 4 µM", "result": 0.704}, {"measurement": "relative viability", "setting": "[11]; first compound 0.04 µM", "result": 0.971}, {"measurement": "relative viability", "setting": "[11]; first compound 0.1265 µM", "result": 0.866}, {"measurement": "relative viability", "setting": "[11]; first compound 0.4 µM", "result": 1.03}, {"measurement": "relative viability", "setting": "[11]; first compound 1.265 µM", "result": 0.886}, {"measurement": "relative viability", "setting": "[11]; first compound 4 µM", "result": 0.859}, {"measurement": "relative viability", "setting": "[12]; first compound 0.04 µM", "result": 0.857}, {"measurement": "relative viability", "setting": "[12]; first compound 0.1265 µM", "result": 0.693}, {"measurement": "relative viability", "setting": "[12]; first compound 0.4 µM", "result": 0.816}, {"measurement": "relative viability", "setting": "[12]; first compound 1.265 µM", "result": 0.719}, {"measurement": "relative viability", "setting": "[12]; first compound 4 µM", "result": 0.819}, {"measurement": "relative viability", "setting": "[13]; first compound 0.04 µM", "result": 1.11}, {"measurement": "relative viability", "setting": "[13]; first compound 0.1265 µM", "result": 0.997}, {"measurement": "relative viability", "setting": "[13]; first compound 0.4 µM", "result": 1.17}, {"measurement": "relative viability", "setting": "[13]; first compound 1.265 µM", "result": 1.2}, {"measurement": "relative viability", "setting": "[13]; first compound 4 µM", "result": 1.23}, {"measurement": "relative viability", "setting": "[14]; first compound 0.04 µM", "result": 0.699}, {"measurement": "relative viability", "setting": "[14]; first compound 0.1265 µM", "result": 0.754}, {"measurement": "relative viability", "setting": "[14]; first compound 0.4 µM", "result": 0.745}, {"measurement": "relative viability", "setting": "[14]; first compound 1.265 µM", "result": 0.727}, {"measurement": "relative viability", "setting": "[14]; first compound 4 µM", "result": 0.734}, {"measurement": "relative viability", "setting": "[15]; first compound 0.04 µM", "result": 1.16}, {"measurement": "relative viability", "setting": "[15]; first compound 0.1265 µM", "result": 1.04}, {"measurement": "relative viability", "setting": "[15]; first compound 0.4 µM", "result": 1.3}, {"measurement": "relative viability", "setting": "[15]; first compound 1.265 µM", "result": 1.16}, {"measurement": "relative viability", "setting": "[15]; first compound 4 µM", "result": 1.18}, {"measurement": "relative viability", "setting": "[16]; first compound 0.04 µM", "result": 0.726}, {"measurement": "relative viability", "setting": "[16]; first compound 0.1265 µM", "result": 0.735}, {"measurement": "relative viability", "setting": "[16]; first compound 0.4 µM", "result": 0.815}, {"measurement": "relative viability", "setting": "[16]; first compound 1.265 µM", "result": 0.571}, {"measurement": "relative viability", "setting": "[16]; first compound 4 µM", "result": 0.705}, {"measurement": "relative viability", "setting": "[17]; first compound 0.04 µM", "result": 0.825}, {"measurement": "relative viability", "setting": "[17]; first compound 0.1265 µM", "result": 0.508}, {"measurement": "relative viability", "setting": "[17]; first compound 0.4 µM", "result": 0.83}, {"measurement": "relative viability", "setting": "[17]; first compound 1.265 µM", "result": 0.664}, {"measurement": "relative viability", "setting": "[17]; first compound 4 µM", "result": 0.761}, {"measurement": "relative viability", "setting": "[18]; first compound 0.04 µM", "result": 0.533}, {"measurement": "relative viability", "setting": "[18]; first compound 0.1265 µM", "result": 0.659}, {"measurement": "relative viability", "setting": "[18]; first compound 0.4 µM", "result": 0.601}, {"measurement": "relative viability", "setting": "[18]; first compound 1.265 µM", "result": 0.495}, {"measurement": "relative viability", "setting": "[18]; first compound 4 µM", "result": 0.583}, {"measurement": "relative viability", "setting": "[19]; first compound 0.04 µM", "result": 0.951}, {"measurement": "relative viability", "setting": "[19]; first compound 0.1265 µM", "result": 0.901}, {"measurement": "relative viability", "setting": "[19]; first compound 1.265 µM", "result": 0.868}, {"measurement": "relative viability", "setting": "[19]; first compound 4 µM", "result": 0.93}, {"measurement": "relative viability", "setting": "[20]; first compound 0.04 µM", "result": 1.01}, {"measurement": "relative viability", "setting": "[20]; first compound 0.1265 µM", "result": 0.994}, {"measurement": "relative viability", "setting": "[20]; first compound 0.4 µM", "result": 1.15}, {"measurement": "relative viability", "setting": "[20]; first compound 1.265 µM", "result": 0.932}, {"measurement": "relative viability", "setting": "[20]; first compound 4 µM", "result": 0.976}, {"measurement": "relative viability", "setting": "[21]; first compound 0.04 µM", "result": 1.45}, {"measurement": "relative viability", "setting": "[21]; first compound 0.1265 µM", "result": 1.13}, {"measurement": "relative viability", "setting": "[21]; first compound 0.4 µM", "result": 1.28}, {"measurement": "relative viability", "setting": "[21]; first compound 1.265 µM", "result": 1.04}, {"measurement": "relative viability", "setting": "[21]; first compound 4 µM", "result": 1.03}, {"measurement": "relative viability", "setting": "[22]; first compound 0.04 µM", "result": 1.03}, {"measurement": "relative viability", "setting": "[22]; first compound 0.1265 µM", "result": 0.808}, {"measurement": "relative viability", "setting": "[22]; first compound 0.4 µM", "result": 1.01}, {"measurement": "relative viability", "setting": "[22]; first compound 1.265 µM", "result": 1.04}, {"measurement": "relative viability", "setting": "[22]; first compound 4 µM", "result": 0.987}]}]}
